# Measured values: publication PMC7649969, “Pyrazolyl-pyrimidones inhibit the function of human solute carrier protein SLC11A2 (hDMT1) by metal chelation” (RSC Medicinal Chemistry, 2020)
# Entries after “also recorded” stand apart in the source; their conditions may differ.
# Target: T1, SLC39A8 (hZIP8) (Homo sapiens, UniProt Q9C0K1)
# T1 construct: DsRED; expressed in transfected cells; host or cells: HEK293T (ATCC CRL-3216), transient transfection with Lipofectamine 2000
# T1 sequence (Q9C0K1 23-460): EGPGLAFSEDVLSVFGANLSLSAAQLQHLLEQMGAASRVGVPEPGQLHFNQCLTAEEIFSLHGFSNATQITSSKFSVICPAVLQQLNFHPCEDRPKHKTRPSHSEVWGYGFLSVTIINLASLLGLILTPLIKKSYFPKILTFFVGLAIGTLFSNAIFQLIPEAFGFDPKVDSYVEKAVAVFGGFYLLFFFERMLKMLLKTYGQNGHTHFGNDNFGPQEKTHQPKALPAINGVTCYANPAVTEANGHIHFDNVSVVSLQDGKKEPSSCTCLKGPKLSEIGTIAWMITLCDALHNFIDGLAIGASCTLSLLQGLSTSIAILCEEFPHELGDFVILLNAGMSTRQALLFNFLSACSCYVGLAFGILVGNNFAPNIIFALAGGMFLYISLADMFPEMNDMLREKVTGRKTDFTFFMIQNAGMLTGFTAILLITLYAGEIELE
# Test: 55Fe2+ uptake by HEK293T cells transiently transfected with hZIP8
# Type: cell-based
# Settings: for inhibition of 55Fe2+ uptake by hZIP8: compound 10 μM, 55Fe2+ 1 μM, pH 7.4, HEK293T; for IC50: HEK293T transiently transfected with hZIP8, 55Fe2+ 1 μM, pH 7.4
# From the text: Complex formation with Fe^2+ should result in non-selective inhibition of different metal transporters. To test this hypothesis, we investigated whether human SLC39A8 (hZIP8), a transporter of Zn^2+ and Fe^2+ unrelated to SLC11 family, might also be inhibited by our hDMT1 inhibitors. Both SLCs can be tested by inhibition of radioactive iron uptake into HEK293 cells expressing the transporter, at pH 5.5 for hDMT1 and at pH 7.4 for hZIP8.
# Fig. 5 Cross reactivity of hDMT1 inhibitors over the functional activity of the divalent metal transporter hZIP8. (a) ^55Fe^2+ uptake (1 μM) by HEK293T cells (source: American Type Culture Collection, catalog no. CRL-3216) transiently transfected with the empty vector (Ev), hDMT1 or hZIP8. Uptake assay was performed at the optimal pH for the functional activity of each transporter (pH 5.5 and pH 7.4 respectively). The indicated compounds (10 μM) were pre-incubated for 5 min, and then, for 15 min with both compound and ^55Fe^2+. Measured ^55Fe^2+ was corrected by subtracting the background iron uptake measured in non-transfected cells. The data was normalized to the Fe^2+ uptake measured in the presence of DMSO (0.1%) and represented as mean ± SD (N = 5–16; obtained from 2 independent experiments). IC50 determination for pyrazolyl-pyrimidone 13 (b) and bipyridine (c) in HEK293T cells transiently transfected with hDMT1 (left panels) or hZIP8 (right panels). ^55Fe^2+ uptake (1 μM) was measured in the presence of the indicated compound concentration ranges, and the measurements were corrected by subtracting the background iron uptake measured in non-transfected cells. IC50 values were calculated by fitting the data to a sigmoidal 4-parameter equation. Representative experiments are depicted, while IC50 values were calculated as mean ± SD of 3 different experiments.
# Chemicals and reagents were purchased from Merck, except where indicated otherwise.
# Cell Culture. Cellular experiments where conducted either with a HEK293 cell line (ATCC) stably expressing DsRED-hDMT1 plasmid or HEK293T cells (ATCC) transiently transfected with DsRED-hZIP8 or DsRED-hDMT1 plasmids. The cell line stably expressing hDMT1 was generated as described in previous works1,2. In both cases, cells were cultured in Dulbecco´s modified Eagle´s medium (DMEM) supplemented with 10 % foetal bovine serum (FBS), 10 mM HEPES and 1 mM Na-pyruvate under standard cell culture conditions (37 °C, 95 % humidity and air containing 5 % CO2). When culturing the hDMT1 overexpressing cell line, to maintain stable the expression of the exogenous plasmid, culture media was also supplemented with […] geneticin (Life Technologies). […]
# Radiolabelled iron uptake assay. Cells were seeded in clear bottom, white-well, poly-D-lysine coated 96-well plates (Corning). HEK293 cells stably over-expressing hDMT1 were seeded 24 hours before the experiment at a density of 50,000 cells/well. HEK293T cells were seeded at 30,000 cells/well 48 hours before the experiment, and 24 hours after were transfected […]
# using Lipofectamine 2000 (Life technologies) as described in the manufacturer’s protocol.
# Before the uptake assay, culture media was aspirated and the cells were washed with the uptake solution (140 mM NaCl, 2.5 mM KCl, 1 mM CaCl2, 1 mM MgCl2, 1.2 mM K2HPO4, 10 mM glucose, 5 mM HEPES, 5 mM MES, pH 7.4). To determine the iron uptake, the cells were incubated for 15 min at room temperature (RT) with uptake solution (pH 5.5) supplemented with 100 µM Ascorbic acid, and the indicated amount of non-radioactive Ferrous iron (Fe2+) and radiolabelled 55Fe2+ (American Radiolabelled) (0.5 µCi/mL). To stop the uptake process, the solution containing the radiotracer was removed and cells were washed with ice-cold uptake solution (pH 7.5). To determine the iron accumulated within the cells during the incubation time, the scintillation cocktail Mycrosinth 20 (PerkinElmer) was added to each well, and the cells were incubated during 1 hour at RT under constant agitation. […]
SMILES,inhibition of 55Fe2+ uptake by hZIP8,IC50 [µM]
Cc1cc(O)nc(-n2nc(C)cc2C)n1 [Compound 5],inhibited both transporters,
"N=C(N)SCc1cccc2c1oc1c(CSC(=N)N)cccc12 [Compound 1, reference compound]",no measurable activity on hZIP8,
c1ccc(-c2ccccn2)nc1 [bipyridine],inhibited both transporters,~6.5
Cc1cc(=O)[nH]c(-n2nc3c(c2C)CCCC3)n1 [Compound 13],inhibited both transporters; also recorded: cross-inhibition,~1.1
"Cc1nn(-c2ccccn2)c(O)c1C(=O)Nc1cccc(C(F)(F)F)c1 [Compound 3, reference compound]",inhibited both transporters,
